Literature values, collected in US6899896B2, “Hydrogel-driven layered drug dosage form” (Pfizer Inc, priority 1999, dated 2005).
Where two headings read alike, the source gives them in different places.

Q: Which results are given for CN[C@H]1CC[C@@H](c2ccc(Cl)c(Cl)c2)c2ccccc21 [Sertraline, (1S-cis)-4-(3,4-dichlorophenyl)-1,2,3,4-tetrahydro-N-methyl-1-naphthalenamine]?
A: solubility of sertraline (pH 2.0): 6 mgA/mL; solubility of sertraline (pH 6.5): about 1 mgA/mL; solubility of sertraline (pH about 7.0): about 0.2 mgA/mL; solubility of sertraline (pH about 7.5): about 0.05 mgA/mL
